Columns and labels:
human V1a receptor [1] = target: T1, human V1a receptor (Homo sapiens, UniProt P37288); test: V1a vasopressin receptor functional activity (intracellular calcium mobilization, FLIPR, V1a-HEK cells); assay type: cell-based; details: antagonism of vasopressin-induced calcium mobilization in V1a-HEK cells
Description: The V1a receptor is a G-protein coupled receptor, which upon activation triggers an increase in intracellular calcium mobilization. To evaluate compounds for their functional V1a receptor activity, HEK-293 cells were transfected with the human V1a receptor (V1a-HEK cells). HEK-293 cells were grown in DMEM (Dulbecco's modified Eagle Media) supplemented with 10% FBS and glutamine. HEK-cells were passed biweekly by trypsinization and seeded into 96 well plates at 33,000 cells per well. HEK-293 cells were transfected with human V1a receptor DNA using DMRIE-C reagent from Life Technologies (Carlsbad, Calif.). Stable lines were generated by selecting cells grown in culture media containing geneticin. After growing in Packard Clear-View black 96 well plates for 4-6 days, V1a-HEK cells were loaded with the calcium-sensitive fluorescence dye, FLUO-3 AM. Changes in intracellular calcium mobilization were measured by quantitating intracellular fluorescence using FLIPR (Fluorometric Imaging Plate Reader; Molecular Devices, Sunnyvale, Calif.). Test compounds were first added to the cells and the resulting changes in fluorescence measured to detect receptor agonistic activity. Five minutes later the cells were challenged with vasopressin to test compounds for their antagonistic activity. Receptor antagonists inhibit the ability of vasopressin to stimulate increases in intracellular fluorescence. IC50's were calculated.

human V1a receptor [2] = target: T1, human V1a receptor; test: In-vitro binding assay, 3H-arginine-8-vasopressin, V1a; details: for IC50: membrane containing human V1a receptor, displacement of H3 vasopressin; for inhibition at 0.2 µM: 0.2 μM test compound, read-out: V1a (binding), Percent inhibition at 0.2 μM
Description: (§1) Assay buffer is 50 mM Tris-Cl, 5 mM MgCl2, 0.1% BSA (pH 7.5) containing 5 μg/ml of aprotinin, leupeptin, pepstatin, 50 μg/ml bacitracin, and 1 mM Pefabloc (4-(2-Aminoethyl)-benzenesulfonyl fluoride, hydrochloride manufactured by Roche Diagnostics Corporation, Indianapolis, Ind. and distributed by Boehringer Mannheim). H3 vasopressin is ^3H-arginine-8-vasopressin (NEN Life Sciences, Boston, Mass.; 68.5 Ci/mmol, final concentration in assay is 0.65-0.75 nM). Into wells of 96-well round bottom polypropylene plates are added buffer, test compound, membrane (containing human V1a or V2 receptor), and H3 vasopressin. The reaction plates are allowed to sit at room temperature for one hour. The samples are filtered through Unifilter GF/C plates (PerkinElmer Life Sciences, Boston, Mass.) presoaked in […]. The plates are washed 5 times with cold physiological saline containing 0.05% Tween 20. After drying, the bottom of the filter plates
(§2) [formula] are sealed and 0.025 ml of Microscint-20 (Packard Instrument Co, Meriden, Conn.) is added to each filter. The top of the plate is sealed, and the plate is counted. Non-specific binding is determined by the addition of 1.25 μM arginine-8-vasopressin in those wells. % Inh. is calculated as follows: […]

human V2 receptor [3] = target: T2, human V2 receptor (Homo sapiens, UniProt P30518); test: In-vitro binding assay, 3H-arginine-8-vasopressin, V2; details: for inhibition at 0.2 µM: 0.2 μM test compound, read-out: V2 (binding), Percent inhibition at 0.2 μM; for IC50: membrane containing human V2 receptor, displacement of H3 vasopressin
T2 sequence (P30518 whole entry): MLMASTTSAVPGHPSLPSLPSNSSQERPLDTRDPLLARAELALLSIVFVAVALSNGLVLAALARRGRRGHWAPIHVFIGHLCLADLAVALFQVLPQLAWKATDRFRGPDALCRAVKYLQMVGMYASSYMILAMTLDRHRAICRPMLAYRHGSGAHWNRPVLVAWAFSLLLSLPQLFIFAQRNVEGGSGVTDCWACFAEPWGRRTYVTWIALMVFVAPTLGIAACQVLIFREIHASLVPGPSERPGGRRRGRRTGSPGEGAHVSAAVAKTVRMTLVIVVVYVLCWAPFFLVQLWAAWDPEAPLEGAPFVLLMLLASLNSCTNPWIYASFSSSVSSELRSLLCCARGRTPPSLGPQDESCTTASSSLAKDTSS
Description: as §1, §2

human V2 receptor [4] = target: T2, human V2 receptor; test: V2 vasopressin receptor functional activity (cAMP accumulation, V2-HEK cells); assay type: cell-based; design: expressed in transfected cells; host or cells: HEK-293; details: block of vasopressin-stimulated cAMP accumulation in V2-HEK cells
Description: The V2 receptor is also a G-protein coupled receptor which when activated induces an increase in cAMP turnover. Antagonism against the V2 receptor is determined by measuring cAMP accumulation in transfected HEK-293 cells expressing the human V-2 receptor (V2-HEK cells). Compounds are tested for their ability to block the stimulatory effects of vasopressin on cAMP accumulation. The cell content of cAMP is measured by radioimmunoassay using NEN flashplates.

T1 sequence (P37288 whole entry): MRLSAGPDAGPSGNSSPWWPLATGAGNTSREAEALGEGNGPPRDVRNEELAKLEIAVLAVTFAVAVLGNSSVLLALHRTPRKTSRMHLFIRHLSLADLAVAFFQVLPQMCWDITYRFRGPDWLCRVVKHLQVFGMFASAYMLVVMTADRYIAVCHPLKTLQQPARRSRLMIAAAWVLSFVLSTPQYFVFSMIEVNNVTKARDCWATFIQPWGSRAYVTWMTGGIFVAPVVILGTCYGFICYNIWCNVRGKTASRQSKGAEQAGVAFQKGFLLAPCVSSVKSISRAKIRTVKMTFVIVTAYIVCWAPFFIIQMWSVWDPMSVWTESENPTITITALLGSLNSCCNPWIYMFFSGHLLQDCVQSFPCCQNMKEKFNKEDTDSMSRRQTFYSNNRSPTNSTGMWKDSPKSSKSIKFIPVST

Structure (SMILES)	IC50 (human V1a receptor [1])	IC50 (human V1a receptor [2])	inhibition at 0.2 µM (human V2 receptor [3])	IC50 (human V2 receptor [4])	IC50 (human V2 receptor [3])	inhibition at 0.2 µM (human V1a receptor [2])
CN1CCCC2(CCN(C(=O)c3ccc(NC(=O)c4cc(F)ccc4Cl)cc3)c3ccccc3C2)C1 (centres unmarked) [Compound 8, Benzamide, 2-chloro-N-[4-{(2,3-dihydro-1′-methyl-spiro[4H-1-benzazepine-4,3-piperidin}-1(5H)-yl)carbonyl}phenyl]-5-fluoro]	0.01 µM	12 nM	52%	0.46 µM	–	–
CN1CCCC2(CCN(C(=O)c3ccc(NC(=O)c4ccccc4-c4ccccc4)cc3)c3ccccc3C2)C1 (centres unmarked) [Compound 10, [1,1′-Biphenyl]-2-carboxamide, N-[4-[(2,3-dihydro-1′-methyl-spiro{4H-1-benzazepine-4,3′-piperidin}-1(5H)-yl)carbonyl]phenyl}-]	0.08 µM	15 nM	–	0.064 µM	29 nM	–
O=C(Nc1ccc(C(=O)N2CCC3(CCN(C4CCCC4)C3)Cc3ccccc32)cc1)c1ccccc1-c1ccccc1 (centres unmarked) [Compound 18]	–	–	70%	–	–	66%
COC(=O)CN1CCC2(CCN(C(=O)c3ccc(NC(=O)c4ccccc4-c4ccccc4)cc3)c3ccccc3C2)C1 (centres unmarked) [Compound 22, [1,1′-Biphenyl]-2-carboxamide, N-[4-[(2,3-dihydro-1′-acetic acid-spiro{4H-1-benzazepine-4,3′-pyrrolidin}-1(5H)-yl)carbonyl]phenyl}-, methyl ester]	0.4 µM	–	–	0.049 µM	110 nM	66%
CCOC(=O)CN1CCC2(CCN(C(=O)c3ccc(NC(=O)c4ccccc4-c4ccccc4)cc3)c3ccccc3C2)C1 (centres unmarked) [Compound 23, [1,1′-Biphenyl]-2-carboxamide, N-[4-[(2,3-dihydro-1′-acetic acid-spiro{4H-1-benzazepine-4,3′-pyrrolidin}-1(5H)-yl)carbonyl]phenyl}-, ethyl ester]	0.78 µM	–	58%	0.673 µM	–	75%
CCOC(=O)CC(=O)N1CCC2(CCN(C(=O)c3ccc(NC(=O)c4ccccc4-c4ccccc4)cc3)c3ccccc3C2)C1 (centres unmarked) [Compound 25, [1,1′-Biphenyl]-2-carboxamide, N-[4-[(2,3-dihydro-1′-pyruvic acid-spiro{4H-1-benzazepine-4,3′-pyrrolidin}-1(5H)-yl)carbonyl]phenyl}-, ethyl ester]	–	–	77%	0.306 µM	–	35%
O=C(O)CC(=O)N1CCC2(CCN(C(=O)c3ccc(NC(=O)c4ccccc4-c4ccccc4)cc3)c3ccccc3C2)C1 (centres unmarked) [Compound 26]	–	–	83%	0.272 µM	–	23%
CC(=O)N1CCC2(CCN(C(=O)c3ccc(NC(=O)c4ccccc4-c4ccccc4)cc3)c3ccccc3C2)C1 (centres unmarked) [Compound 27, [1,1′-Biphenyl]-2-carboxamide, N-[4-[(2,3-dihydro-1′-acetyl-spiro{4H-1-benzazepine-4,3′-pyrrolidin}-1(5H)-yl)carbonyl]phenyl}-]	0.21 µM	–	78%	0.182 µM	–	61%
CN(C)CC(=O)N1CCC2(CCN(C(=O)c3ccc(NC(=O)c4ccccc4-c4ccccc4)cc3)c3ccccc3C2)C1 (centres unmarked) [Compound 28, [1,1′-Biphenyl]-2-carboxamide, N-[4-[(2,3-dihydro-(1′-(2-(dimethylamino)acetyl))spiro{4H-1-benzazepine-4,3′-pyrrolidin}-1(5H)-yl)carbonyl]phenyl]-;]	–	260 nM	–	–	–	–

— patent publication US7825110B2, “Substituted spiroheterocycles” (Janssen Pharmaceutica NV, priority 2006, dated 2010)
